Columns and labels:
[1] = Cooling strength of coolants relative to menthol; settings: menthol = 100
[2] = Penetration of coolants across body surfaces
Description: By "penetration enhancer" we mean any compound which aids penetration or absorption of coolants (or other active ingredients) into and through body surfaces, for example, compounds which aid penetration of coolants into and through the skin and mucosal membranes. Preferably, penetration enhancers as used herein aid penetration and/or absorption of coolants which are cyclic carboxamides, such as N-cthyl-p-menthane-3-carboxamide, and/or aid penetration and/or absorption of (-)-isopulegol across body surfaces. Such penetration enhancement may potentiate the action of coolants, or other active ingredients. Any suitable penetration enhancer may be used. Preferred penetration enhancers include ethoxy diglycol, limonene, isopropyl palmitate, sodium lauryl sulphate and L-arginine. Optionally, the penetration enhancer may also act as a vasodilator.
Optionally, the compositions further comprise a penetration enhancer. The penetration enhancer can be any compound which aids penetration or absorption of the cyclic carboxamide and/or of isopulegol into and through body surfaces, for example, compounds which aid penetration into and through the skin and mucosal membranes. Any suitable penetration enhancer may be used. Preferred penetration enhancers include ethoxy diglycol, limonene; isopropyl palmitate; and sodium lauryl sulphate. […]

[3] = Crystallisation / clouding at low temperatures; format: physicochemical
[4] = Volatility compared with menthol; format: physicochemical

SMILES | Cooling strength relative to menthol [1] | further results
C=C(C)C1CCC(C)CC1O (stereo not drawn) [Isopulegol, 2-isopropenyl-5-methyl-cyclohexanol] | 25 | 
N=C(N)NCCC[C@H](N)C(=O)O [L-arginine] |  | penetration enhancement of coolants (cyclic carboxamides and isopulegol) [2]: aids penetration of coolants
CC1CCC(C(C)C)C(O)C1 (stereo not drawn) [Menthol] | 100 | 
CC1CCC(C(C)C)C2(C1)OCC(CO)O2 (stereo not drawn) [Menthone glycerine acetal] | 41 | 
CC1CCC(C(C)C)C(OC(=O)C(C)O)C1 (stereo not drawn) [Menthyl lactate] | 43 | 
CCNC(=O)C1CC(C)CCC1C(C)C (stereo not drawn) [WS-3, N-ethyl-p-menthane-3-carboxamide] | 150 | crystallisation at low temperatures [3]: does not crystallise at low temperatures; volatility [4]: lower volatility than menthol
CNC(=O)C(C)(C(C)C)C(C)C [WS-23] | 75 | 

Reference: patent EP2173323B1, “STIMULATING GEL” (LRC Products Limited, priority 2007, dated 2009)
